Data as given in ChEMBL document CHEMBL1130846, “A new class of sulfoxide surfactants derived from Tris. Synthesis and preliminary assessments of their properties” (Bioorg Med Chem Lett, 1998).
≈ marks a conversion by molar mass, not a printed value.

Columns and labels:
Rattus norvegicus [1] = species: Rattus norvegicus; test: Compound was evaluated for the amount of protein solubilized, expressed as percentage weight of freeze-dried microsomes (20 mg) of rat liver; format: functional
Rattus norvegicus [2] = species: Rattus norvegicus; test: Compound was evaluated for the amount of protein solubilized, expressed as percentage weight of freeze-dried nuclear membrane (100 mg) of rat liver; format: functional
Rattus norvegicus [3] = species: Rattus norvegicus; test: Compound was evaluated for the amount of protein solubilized, expressed as percentage weight of freeze-dried mitochondria (20 mg) of rat liver; format: functional, organism-based
[4] = Water solubility was evaluated; format: ADME; conditions: read-out: Ws

| solubility [4] [µg/mL] | Compound | Weight (Rattus norvegicus [1]) [%] | Weight (Rattus norvegicus [2]) [%] | Weight (Rattus norvegicus [3]) [%] |
| --- | --- | --- | --- | --- |
| – | CC(C)(C)CC(C)(C)c1ccc(OCCO)cc1 | 76.2 | 62.2 | 74.9 |
| 1200 (≈ 2100 µM) | O=C(CC[S+]([O-])CCC(F)(F)C(F)(F)C(F)(F)C(F)(F)C(F)(F)C(F)(F)F)NC(CO)(CO)CO (configuration not stated) | 32.6 | 25.5 | 30.3 |
| > 10000 | CCCCCCCCCC[S+]([O-])CCC(=O)NC(CO)(CO)CO (configuration not stated) | 68.9 | 57.4 | 71 |
| 85 (≈ 189 µM) | CCCCCCCCCCCCCCCC[S+]([O-])CCC(=O)NC(CO)(CO)CO (configuration not stated) | 58.4 | 45.7 | 58.6 |
| > 10000 | CCCCCCCC[S+]([O-])CCC(=O)NC(CO)(CO)CO (configuration not stated) | 71 | 55.5 | 69.8 |
| > 10000 | O=C(CC[S+]([O-])CCC(F)(F)C(F)(F)C(F)(F)C(F)(F)C(F)(F)C(F)(F)F)NC(CO[C@H]1O[C@@H](CO)[C@@H](O)[C@@H](O)[C@@H]1O)(CO[C@@H]1O[C@H](CO)[C@H](O)[C@H](O)[C@H]1O)CO[C@@H]1O[C@H](CO)[C@H](O)[C@H](O)[C@H]1O (some centres not stated) | – | – | – |
| > 1500 | O=C(CC[S+]([O-])CCC(F)(F)C(F)(F)C(F)(F)C(F)(F)C(F)(F)C(F)(F)C(F)(F)C(F)(F)F)NC(CO)(CO)COC1O[C@H](CO)[C@H](O)[C@H](O)[C@H]1O (some centres not stated) | – | – | – |
| 25 (≈ 37.2 µM) | O=C(CC[S+]([O-])CCC(F)(F)C(F)(F)C(F)(F)C(F)(F)C(F)(F)C(F)(F)C(F)(F)C(F)(F)F)NC(CO)(CO)CO (configuration not stated) | – | – | – |
| > 6000 | CCCCCCCCCCCC[S+]([O-])CCC(=O)NC(CO)(CO)CO (configuration not stated) | 62.5 | 52.4 | 65.6 |
| > 10000 | CCCCCCCCCCCC[S+]([O-])CCC(=O)NC(CO)(CO)CO[C@@H]1O[C@H](CO)[C@H](O)[C@H](O)[C@H]1O (some centres not stated) | – | – | – |
